Tested on: SK-OV-3 cells
Experiment: Effect of compounds on tryptophan catabolism in SK-OV-3 cell line (inhibition of kynurenine production, LC-MS/MS)
Type: cell-based
Details: Homo sapiens, SK-OV-3, 24 h, SK-OV-3 cell line, 24 h incubation, kynurenine in supernatant by LC-MS/MS; read-out: IC50 Ranges (ic50 values for inhibition of Kynurenine production)
Procedure: SK-OV-3 cells are seeded in 96-well plates in McCoy's 5A medium supplemented with 10% FBS and incubated overnight at 37° C., 5% CO2, 95% humidity. The […] growth medium is replaced with DMEM F-12 medium supplemented with 6 mg/mL L-tryptophan. Compounds are added to the wells and incubated for 24 h at 37° C., 5% CO2, 95% humidity. Compounds are tested at 8 consecutive 3-fold dilutions starting from 30 μM in duplicate. At the end of incubation, concentration of kynurenine in cell supernatants is […] determined by LC-MS/MS. In parallel, cell viability is assessed by measurement of ATP using CellTiter Glo assay (Promega), according to manufacturer's protocol. Inhibition of Kyn production is calculated using the following formula: […] IC50 ranges for compounds of the invention are presented in Table 2, whereby the IC50 ranges are as follows: • A: […]

| Structure (SMILES) | IC50 [µM] |
| --- | --- |
| Cc1nc(C)c(CN(C(=O)Nc2ccc(F)c(F)c2)C2CCCC2)s1 [Compound 171, 1-cyclopentyl-1-[(2,4-dimethylthiazol-5-yl)methyl]-3-(3,4-difluorophenyl)-urea] | 1 to 5 |
| Cc1ccc(CN(C(=O)Nc2ccc(Cl)cc2)c2cnn(C)c2)o1 [Compound 225, 3-(4-chlorophenyl)-1-[(5-methyl-2-furyl)methyl]-1-(1-methylpyrazol-4-yl)urea] | 0.1 to 0.5 |
| N#Cc1ccc(NC(=O)N(Cc2cc3ccccc3o2)C2CCCC2)cc1 [Compound 132, 1-(benzofuran-2-ylmethyl)-3-(4-cyanophenyl)-1-cyclopentyl-urea] | 0.1 to 0.5 |
| O=C(Nc1ccccc1)N(Cc1ccccn1)C1CCCC1 [Compound 67, 1-cyclopentyl-3-phenyl-1-(2-pyridylmethyl)urea] | 1 to 5 |
| N#Cc1cc(CN(C(=O)Nc2ccccc2)C2CCCC2)ccc1F [Compound 50, 1-[(3-cyano-4-fluoro-phenyl)methyl]-1-cyclopentyl-3-phenyl-urea] | 0.1 to 0.5 |
| O=C(Nc1ccc(Cl)cc1)N(Cc1ccc2scnc2c1)C1CCC1 [Compound 260, 1-(1,3-benzothiazol-5-ylmethyl)-3-(4-chlorophenyl)-1-cyclobutyl-urea] | < 0.1 |
| O=C(Nc1ccc(C#CCO)cc1)N(Cc1ccnc(C(F)(F)F)c1)C1CCC1 [Compound 296, 1-cyclobutyl-3-[4-(3-hydroxyprop-1-ynyl)phenyl]-1-[[2-(trifluoromethyl)-4-pyridyl]methyl]urea] | 0.1 to 0.5 |
| O=C(Nc1ccc(Cl)cc1)N(Cc1cn2ccccc2n1)C1CCC1 [Compound 250, 3-(4-chlorophenyl)-1-cyclobutyl-1-(imidazo[1,2-a]pyridin-2-ylmethyl)urea] | 1 to 5 |
| Cc1ccc(CN(C(=O)Nc2ccc(C#N)nc2)C2CCCC2)o1 [Compound 124, 3-(6-cyano-3-pyridyl)-1-cyclopentyl-1-[(5-methyl-2-furyl)methyl]urea] | 0.1 to 0.5 |
| Cc1ccc(CN(C(=O)Nc2ccc(OC(F)F)cc2)c2cnoc2C)o1 [Compound 301, 3-[4-(difluoromethoxy)phenyl]-1-[(5-methyl-2-furyl)methyl]-1-(5-methylisoxazol-4-yl)urea] | < 0.1 |
| O=C(Nc1ccccc1)N(Cc1ccccc1Cl)C1CCCC1 [Compound 38, 1-[(2-chlorophenyl)methyl]-1-cyclopentyl-3-phenyl-urea] | 0.5 to 1 |
| COc1ccc(NC(=O)N(Cc2ccc(C)o2)C2CCCC2)cn1 [Compound 253, 1-cyclopentyl-3-(6-methoxy-3-pyridyl)-1-[(5-methyl-2-furyl)methyl]urea] | 0.1 to 0.5 |
| Cc1ccc(CN(C(=O)Nc2ccccc2C#N)C2CCCC2)o1 [Compound 95, 3-(2-cyanophenyl)-1-cyclopentyl-1-[(5-methyl-2-furyl)methyl]urea] | 1 to 5 |
| N#Cc1ccc(NC(=O)N(Cc2ccnc(C(F)(F)F)c2)C2CCC2)cc1 [Compound 152, 3-(4-cyanophenyl)-1-cyclobutyl-1-[[2-(trifluoromethyl)-4-pyridyl]methyl]urea] | 0.1 to 0.5 |
| Cc1ccc(CN(C(=O)Nc2ccccc2)C2CCC2)o1 [Compound 178, 1-cyclobutyl-1-[(5-methyl-2-furyl)methyl]-3-phenyl-urea] | 1 to 5 |
| O=C(Nc1ccc(F)cc1)N(Cc1ccncc1)C1CCCC1 [Compound 75, 1-cyclopentyl-3-(4-fluorophenyl)-1-(4-pyridylmethyl)urea] | > 5 |
| N#Cc1ccc(NC(=O)N(Cc2cc3ccccn3n2)C2CCC2)cc1 [Compound 207, 3-(4-cyanophenyl)-1-cyclobutyl-1-(pyrazolo[1,5-a]pyridin-2-ylmethyl)urea] | 0.1 to 0.5 |

| Structure (SMILES) | IC50 [µM] |
| --- | --- |
| COc1ccc(N(Cc2cccs2)C(=O)NC2CCCCC2)cc1 [Compound 202, 3-cyclohexyl-(4-methoxyphenyl)-1-(2-thienylmethyl) urea] | 1 to 5 |
| O=C(Nc1ccc(Cl)cc1)N(Cc1cn2ccncc2n1)C1CCC1 [Compound 212, 3-(4-chlorophenyl)-1-cyclobutyl-1-(imidazo[1,2-a]pyrazin-2-ylmethyl)urea] | 1 to 5 |
| Cc1nocc1N(CC1CCC2(CC1)COC2)C(=O)Nc1ccc(Cl)cc1 [Compound 326, 3-(4-chlorophenyl)-1-(3-methylisoxazol-4-yl)-1-(2-oxaspiro[3.5]nonan-7-ylmethyl)urea] | > 5 |
| O=C(Nc1cccnc1)N(Cc1cccs1)C1CCCC1 [Compound 57, 1-cyclopentyl-3-(3-pyridyl)-1-(2-thienylmethyl)urea] | > 5 |
| O=C(Nc1ccc2c(c1)OCO2)N(Cc1cccs1)C1CCCC1 [Compound 7, 3-(1,3-benzodioxol-5-yl)-1-cyclopentyl-1-(2-thienylmethyl)urea] | 1 to 5 |
| Cc1ccc(CN(C(=O)Nc2nnc(C3CCCCC3)o2)C2CCCC2)o1 [Compound 169, 3-(5-cyclohexyl-1,3,4-oxadiazol-2-yl)-1-cyclopentyl-1-[(5-methyl-2-furyl)methyl]urea] | 1 to 5 |
| N#Cc1cccc(CN(C(=O)Nc2ccccc2)C2CCCC2)n1 [Compound 125, 1-[(6-cyano-2-pyridyl)methyl]-1-cyclopentyl-3-phenyl-urea] | 1 to 5 |
| Cc1ccc(CN(C(=O)Nc2ccc(C#N)cc2)c2ncnn2C)o1 [Compound 266, 3-(4-cyanophenyl)-1-[(5-methyl-2-furyl)methyl]-1-(2-methyl-1,2,4-triazol-3-yl) urea] | 1 to 5 |
| O=C(Nc1ccc(Cl)cc1)N(Cc1ccon1)C1CCCC1 [Compound 149, 3-(4-chlorophenyl)-1-cyclopentyl-1-(isoxazol-3-ylmethyl)urea] | 0.5 to 1 |
| CC1(CN(C(=O)Nc2ccc(F)cc2)C2CCCC2)CCNCC1 [Compound 86, 1-cyclopentyl-3-(4-fluorophenyl)-1-[(4-methyl-4-piperidyl)methyl]urea] | 1 to 5 |
| CC(C)(C)OC(=O)N1CCC(CN(C(=O)Nc2ccccc2)C2CCCC2)CC1 [Compound 118, tert-butyl 4-[[cyclopentyl(phenylcarbamoyl)amino]methyl]piperidine-1-carboxylate] | 1 to 5 |
| Cc1ccc(CN(C(=O)Nc2ccc(Cl)cc2)c2ccn(C)n2)o1 [Compound 226, 3-(4-chlorophenyl)-1-[(5-methyl-2-furyl)methyl]-1-(1-methylpyrazol-3-yl)urea] | 0.1 to 0.5 |
| N#Cc1cc(CN(C(=O)Nc2ccc(F)cc2)C2CCCC2)ccc1F [Compound 53, 1-[(3-cyano-4-fluoro-phenyl)methyl]-1-cyclopentyl-3-(4-fluorophenyl)urea] | 0.1 to 0.5 |
| O=C(Nc1ccc(Cl)cc1)N(Cc1cccnc1)C1CCCC1 [Compound 66, 3-(4-chlorophenyl)-1-cyclopentyl-1-(3-pyridylmethyl)urea] | 0.1 to 0.5 |
| C#Cc1ccc(NC(=O)N(Cc2ccc(C)o2)C2CCOCC2)cc1 [Compound 259, 3-(4-ethynylphenyl)-1-[(5-methyl-2-furyl)methyl]-1-tetrahydropyran-4-yl-urea] | 0.1 to 0.5 |
| Cc1ccc(CN(C(=O)Nc2ccc(Cl)cc2F)C2CCCC2)o1 [Compound 172, 3-(4-chloro-2-fluoro-phenyl)-1-cyclopentyl-1-[(5-methyl-2-furyl)methyl]urea] | 0.1 to 0.5 |
| Cc1ccc(CN(C(=O)Nc2ccc(-c3cnn(C)c3)nc2)C2CCCC2)o1 [Compound 160, 1-cyclopentyl-1-[(5-methyl-2-furyl)methyl]-3-[6-(1-methylpyrazol-4-yl)-3-pyridyl]urea] | 1 to 5 |
